Experimental findings from patent US10945972B2, “Particulate materials” (Nektar Therapeutics, priority 2002, dated 2021) are described below.

The structures appear in SMILES notation.

Holding throughout (format): physicochemical
A short description of data set [1]: Inverse gas chromatography surface energy (Example 1). The note with it: 303K. From the text:
For TBS and FHBr powders, IGC was done using a Hewlett Packard Series 6890 instrument which was specifically modified for IGC measurements by Surface Measurement Systems Ltd (Manchester, UK). The IGC method is described in detail by Tong et al. 2001. (Tong H. H. Y., B. Y. Shekunov, P. York, A. H. L. Chow, 2001. Pharm. Res. 18, 852.) Triplicate measurements in separate packed columns were made. […] The γS^D and ΔGA values were obtained at 303K.

Data set [2] in a line: AEROFLOW powder avalanching (Example 8). The note with it: listed as TBS 2. The procedure:
An AEROFLOW™ powder avalanching apparatus (Amherst Process Instruments, API, Amherst, USA) was employed to analyze the dynamic avalanching behaviour of micronized and SC processed TBS samples. The AEROFLOW™ apparatus consists of a transparent rotating drum with a port at the front. A white light source is positioned in front of the drum and a masked array of photocells is behind the drum. To measure avalanching, 50 ml of the drug powder was added to the drum, which is about 15% of its total volume to ensure good powder mixing during the operation. As the drum rotates, the powder bed is carried upwards until an unstable state is reached and an avalanche occurs.
The time between successive avalanches was recorded by the projection of the light beam through the drum onto the photocell array. The photocells generated a voltage dependent on the amount of light falling on the cells and the area of unmasked photocells shielded from the light source by the powder. The voltage output (transmitted light intensity) was recorded by a computer, which translates the output as powder movement using a technique disclosed in B. H. Kaye. Characterizing the flowability of a powder using the concepts of fractal geometry and chaos theory, Part. Part. Charact. 14: 53-66 (1997). Each TBS sample was tested in duplicate and mean avalanche time and irregularity (scatter) of avalanches were recorded.

Data set [3] can be described thus: Differential scanning calorimetry (Example 8). The note with it: DSC, 10° C. min^−1. The procedure: Prior to sample analysis, a baseline was obtained which was used as a background. […] Temperature and enthalpy were calibrated with the standard materials indium (melting point=156.6° C.) and zinc (melting point=419.5° C.). Samples (1-10) were accurately weighed into pierced, crimped aluminium pans and heated at 10° C. min^−1 over a heating range of 25-290° C. under a nitrogen purge. A chiller unit was used in conjunction with the calorimeter to attain the lower temperatures.

The nature of data set [4]: Laser diffraction HELOS/RODOS of TBS (Example 8). The conditions noted are these: 2 bar, listed as TBS 2. The procedure:
A small amount of TBS powder was analysed using a laser diffraction RODOS/VIBRI dispersing system (HELOS/RODOS, Sympatec GmbH, Clausthal-Zellerfeld, Germany). The instrument consisted of a laser sensor HELOS and a RODOS dry-powder air-dispersion system (Sympatec GmbH, Clausthal-Zellerfeld, Germany). Different measurement ranges of the laser sensor were provided by interchangeable objectives R1 (0.1-35 μm) and R2 (0.25-87.5 μm). The rate of powder dispersion was controlled by adjusting the pressure of the compressed air flow. A pressure of 2 bar was sufficient to achieve deagglomeration of primary particles without attrition.

With `CC(C)(C)NCC(O)c1cc(O)cc(O)c1` (stereo not shown) [TSB SEDS, terbutaline sulphate], in data set [1], the “γs^D (mJ/m^2)” value was determined as 55.05 mJ/m^2. Besides, the “ΔGA (kJ/mol) Acetone” value in data set [1] (probe acetone) worked out at 10.42 kJ/mol. Further, in data set [1] (probe chloroform), the “ΔGA (kJ/mol) Chloroform” value was found to be 1.21 kJ/mol. The “ΔGA (kJ/mol) Dioxane” value in data set [1] (probe dioxane) is on record as 14.20 kJ/mol. For the same compound, the “ΔGA (kJ/mol) Ethyl acetate” value in data set [1] (probe ethyl acetate) is on record as 13.76 kJ/mol. Further, in data set [1] (probe toluene), the “ΔGA (kJ/mol) Toluene” value is 2.85 kJ/mol. The entries for the “Irregularity of flow” value in data set [2] (100 sec/rev) and in data set [2] (145 sec/rev) were 1.17 s and 2.12 s, respectively. Besides, the “Mean time to avalanche” value was found to be 3.30 s in data set [2] (100 sec/rev) and 4.91 s in data set [2] (145 sec/rev). The “Enthalpy of Fusion” value in data set [3] (listed as TBS 2) and in data set [3] (listed as TBS2) was 88.68 J/g each time. In addition, in data set [4], the “Sympatec D4, 3 (μm)” value is recorded as 3.43 μm.
